Data: patent US11911504B2, “Apparatus and method for protecting neurons and reducing inflammation and scarring” (GALEN THERAPEUTICS LLC, priority 2018, dated 2024)

What was measured:
rat limbic system = conditions: pretreatment of rats, systemic kainic acid seizure; cited from earlier work
[1] = system: mechanical hyperalgesia of the affected hind paw; test: Mechanical hyperalgesia (von Frey foot withdrawal) after L5 spinal nerve ligation; assay type: in vivo; conditions: SNL mice, PBN 150 mg/kg i.p. or 100 μg i.t.
Protocol: Inhibition of neuron death using one of the anti-oxidant agents described above is examined in a spinal injury model as described below. The oxidation inhibitor used is phenyl-N-tert-butylnitrone, a ROS scavenger. Peripheral nerve injury is induced by tightly ligating the L5 spinal nerve under isoflurane anesthesia (2% induction and 1.5% maintenance). Seven days after SNL, mice are randomly divided into treatment and control groups. Mice belonging to one treatment group are injected by one of two different routes with phenyl-N-tert-butylnitrone, PBN (Sigma, St. Louis, Mo.). Doses of PBN used are 150 mg/kg (i.p., 0.1 ml) or 100 μg (i.t., 5 μl), dissolved in saline at a concentration of 20 mg/ml. Mice in the control groups are treated with the same volume of saline. […]
Pain behavior is tested by assessing mechanical hyperalgesia of the affected hind paw. […] Mechanical hyperalgesia of the hind paw is measured by determining the frequency of foot withdrawals to 10 stimuli applied with a von Frey (vF) filament (Stoelting, Wood Dale, Ill.). […] Response rates are calculated as a percentage of the number of positive responses/10 stimuli.

GABA neurons = test: Whole-cell patch recording in lumbar spinal cord slices; assay type: cell-based, mouse; conditions: spinal cord slices of PBN treated mice

SMILES | activator protein-1- and NF-kB-binding activity (rat limbic system) | increased protein nitration (rat limbic system) | neuronal damage resulting from seizure activity in limbic structures (rat limbic system) | spectrin proteolysis (rat limbic system) | foot withdrawal to von Frey filament (pain behavior) [1] | action potential discharge (excitatory) pattern of surviving neurons (GABA neurons) | excitability and firing activity of GABA neurons (GABA neurons)
COc1cccc(C=NCCN=Cc2cccc(OC)c2[O-])c1[O-].[Cl-].[Mn+3] [EUK-134] | reduction | reduction | reduction | reduction | – | – | –
CC(C)(C)[N+]([O-])=Cc1ccccc1 [PBN, phenyl-N-tert-butylnitrone] | – | – | – | – | withdraw their foot less abruptly | superior action potential discharge (excitatory) pattern | restore excitability and prevent suppression of firing activity
